Reference: ChEMBL document CHEMBL1955732, “Synthesis and biological evaluation of 21-arylidenepregnenolone derivatives as neuroprotective agents” (Bioorg Med Chem Lett, 2012)
The source made the active and inactive calls. No cut-off for these calls is given here.

The compounds below were run on PC-12 (assay: Neuroprotective activity against Abeta25-35-induced […] cells assessed as cell viability at 10 uM preincubated for 2 hrs prior Abeta25-35 challenge measured after 24 hrs by MTT assay). Conditions: Rattus norvegicus, read-out: Activity.
Format: functional
Compound `C[C@]12CC[C@H]3[C@@H](C[C@@H]4O[C@@]45C[C@@H](O)CC[C@]35C)[C@@H]1CC[C@@H]2C(=O)/C=C/c1ccccc1Br` has a viability at 10 µM of 61.2%.
With `COc1ccc(/C=C/C(=O)[C@H]2CC[C@H]3[C@@H]4CC=C5C[C@@H](O)CC[C@]5(C)[C@H]4CC[C@]23C)cc1` the viability at 10 µM was 25.7%.
In the case of `Cc1ccccc1/C=C/C(=O)[C@H]1CC[C@H]2[C@@H]3C[C@@H]4O[C@@]45C[C@@H](O)CC[C@]5(C)[C@H]3CC[C@]12C`, the viability at 10 µM was 49.9%.
In the case of `C[C@]12CC[C@H]3[C@@H](C[C@@H]4O[C@@]45C[C@@H](O)CC[C@]35C)[C@@H]1CC[C@@H]2C(=O)/C=C/c1ccco1`, the viability at 10 µM was 82.7%.
Compound `COc1cccc(/C=C/C(=O)[C@H]2CC[C@H]3[C@@H]4CC=C5C[C@@H](O)CC[C@]5(C)[C@H]4CC[C@]23C)c1` has a viability at 10 µM of 44%.
In the case of `C[C@]12CC[C@H]3[C@@H](CC=C4C[C@@H](O)CC[C@@]43C)[C@@H]1CC[C@@H]2C(=O)/C=C/c1ccccc1F`, the viability at 10 µM was 38.3%.
For `C[C@]12CC[C@H]3[C@@H](C[C@@H]4O[C@@]45C[C@@H](O)CC[C@]35C)[C@@H]1CC[C@@H]2C(=O)/C=C/c1ccccc1`, the viability at 10 µM was 70.5%.
For `CC(C)c1ccc(/C=C/C(=O)[C@H]2CC[C@H]3[C@@H]4CC=C5C[C@@H](O)CC[C@]5(C)[C@H]4CC[C@]23C)cc1`, the viability at 10 µM was 34.9%.
`C[C@]12CC[C@H]3[C@@H](C[C@@H]4O[C@@]45C[C@@H](O)CC[C@]35C)[C@@H]1CC[C@@H]2C(=O)/C=C/c1ccc(Cl)cc1Cl` was tested, and the viability at 10 µM was 6%.
Compound `C[C@]12CC[C@H]3[C@@H](C[C@@H]4O[C@@]45C[C@@H](O)CC[C@]35C)[C@@H]1CC[C@@H]2C(=O)/C=C/c1ccccn1` has a viability at 10 µM of 29.7%.
For `C[C@]12CC[C@H]3[C@@H](C[C@@H]4O[C@@]45C[C@@H](O)CC[C@]35C)[C@@H]1CC[C@@H]2C(=O)/C=C/c1ccccc1F`, the viability at 10 µM was 36.7%.
In the case of `C[C@]12CC[C@H]3[C@@H](C[C@@H]4O[C@@]45C[C@@H](O)CC[C@]35C)[C@@H]1CC[C@@H]2C(=O)/C=C/c1cccc([N+](=O)[O-])c1`, the viability at 10 µM was 31.3%.
With `CC(C)c1ccc(/C=C/C(=O)[C@H]2CC[C@H]3[C@@H]4C[C@@H]5O[C@@]56C[C@@H](O)CC[C@]6(C)[C@H]4CC[C@]23C)cc1` the viability at 10 µM was 49.8%.
Compound `C[C@]12CC[C@H]3[C@@H](CC=C4C[C@@H](O)CC[C@@]43C)[C@@H]1CC[C@@H]2C(=O)/C=C/c1ccccc1` has a viability at 10 µM of 29%.
`C[C@]12CC[C@H]3[C@@H](CC=C4C[C@@H](O)CC[C@@]43C)[C@@H]1CC[C@@H]2C(=O)/C=C/c1ccc(Cl)cc1Cl` gave a viability at 10 µM of 34.5%.
`COc1ccc(/C=C/C(=O)[C@H]2CC[C@H]3[C@@H]4C[C@@H]5O[C@@]56C[C@@H](O)CC[C@]6(C)[C@H]4CC[C@]23C)cc1` showed a viability at 10 µM of 29.6%.

What follows are compounds tested on PC-12 (assay: Cytotoxicity against […] cells at 10 uM after 24 hrs by MTT assay). Conditions: rat, pc-12, 24 h.
Format: cell-based
In the case of `COc1ccc(/C=C/C(=O)[C@H]2CC[C@H]3[C@@H]4CC=C5C[C@@H](O)CC[C@]5(C)[C@H]4CC[C@]23C)cc1`, the Activity was “Toxic”.
In the case of `Cc1ccccc1/C=C/C(=O)[C@H]1CC[C@H]2[C@@H]3C[C@@H]4O[C@@]45C[C@@H](O)CC[C@]5(C)[C@H]3CC[C@]12C`, the Activity was “Toxic”.
`COc1cccc(/C=C/C(=O)[C@H]2CC[C@H]3[C@@H]4CC=C5C[C@@H](O)CC[C@]5(C)[C@H]4CC[C@]23C)c1` was tested, and the Activity was “Toxic”.
`C[C@]12CC[C@H]3[C@@H](CC=C4C[C@@H](O)CC[C@@]43C)[C@@H]1CC[C@@H]2C(=O)/C=C/c1ccccc1F` was tested, and the Activity was “Toxic”.
With `CC(C)c1ccc(/C=C/C(=O)[C@H]2CC[C@H]3[C@@H]4CC=C5C[C@@H](O)CC[C@]5(C)[C@H]4CC[C@]23C)cc1` the Activity was “Toxic”.
`C[C@]12CC[C@H]3[C@@H](C[C@@H]4O[C@@]45C[C@@H](O)CC[C@]35C)[C@@H]1CC[C@@H]2C(=O)/C=C/c1ccc(Cl)cc1Cl` was tested, and the Activity was “Toxic”.
For `C[C@]12CC[C@H]3[C@@H](C[C@@H]4O[C@@]45C[C@@H](O)CC[C@]35C)[C@@H]1CC[C@@H]2C(=O)/C=C/c1ccccn1`, the Activity was “Toxic”.
With `C[C@]12CC[C@H]3[C@@H](C[C@@H]4O[C@@]45C[C@@H](O)CC[C@]35C)[C@@H]1CC[C@@H]2C(=O)/C=C/c1ccccc1F` the Activity was “Toxic”.
With `C[C@]12CC[C@H]3[C@@H](C[C@@H]4O[C@@]45C[C@@H](O)CC[C@]35C)[C@@H]1CC[C@@H]2C(=O)/C=C/c1cccc([N+](=O)[O-])c1` the Activity was “Toxic”.
`CC(C)c1ccc(/C=C/C(=O)[C@H]2CC[C@H]3[C@@H]4C[C@@H]5O[C@@]56C[C@@H](O)CC[C@]6(C)[C@H]4CC[C@]23C)cc1` was tested, and the Activity was “Toxic”.
With `C[C@]12CC[C@H]3[C@@H](CC=C4C[C@@H](O)CC[C@@]43C)[C@@H]1CC[C@@H]2C(=O)/C=C/c1ccccc1` the Activity was “Toxic”.
With `C[C@]12CC[C@H]3[C@@H](CC=C4C[C@@H](O)CC[C@@]43C)[C@@H]1CC[C@@H]2C(=O)/C=C/c1ccc(Cl)cc1Cl` the Activity was “Toxic”.
In the case of `COc1ccc(/C=C/C(=O)[C@H]2CC[C@H]3[C@@H]4C[C@@H]5O[C@@]56C[C@@H](O)CC[C@]6(C)[C@H]4CC[C@]23C)cc1`, the Activity was “Toxic”.

Each compound was assayed on PC-12 (assay: Neuroprotective activity against Abeta25-35-induced […] cells assessed as cell viability at 1 uM preincubated for 2 hrs prior Abeta25-35 challenge measured after 24 hrs by MTT assay). Conditions: Rattus norvegicus.
Format: functional
`C[C@]12CC[C@H]3[C@@H](C[C@@H]4O[C@@]45C[C@@H](O)CC[C@]35C)[C@@H]1CC[C@@H]2C(=O)/C=C/c1ccccc1Br` was tested, and the Activity was “inactive”.
For `COc1ccc(/C=C/C(=O)[C@H]2CC[C@H]3[C@@H]4CC=C5C[C@@H](O)CC[C@]5(C)[C@H]4CC[C@]23C)cc1`, the Activity was “inactive”.
For `Cc1ccccc1/C=C/C(=O)[C@H]1CC[C@H]2[C@@H]3C[C@@H]4O[C@@]45C[C@@H](O)CC[C@]5(C)[C@H]3CC[C@]12C`, the Activity was “inactive”.
`C[C@]12CC[C@H]3[C@@H](C[C@@H]4O[C@@]45C[C@@H](O)CC[C@]35C)[C@@H]1CC[C@@H]2C(=O)/C=C/c1ccco1` was tested, and the Activity was “inactive”.
For `CC(C)c1ccc(/C=C/C(=O)[C@H]2CC[C@H]3[C@@H]4CC=C5C[C@@H](O)CC[C@]5(C)[C@H]4CC[C@]23C)cc1`, the Activity was “inactive”.
For `C[C@]12CC[C@H]3[C@@H](C[C@@H]4O[C@@]45C[C@@H](O)CC[C@]35C)[C@@H]1CC[C@@H]2C(=O)/C=C/c1ccc(Cl)cc1Cl`, the Activity was “inactive”.
In the case of `C[C@]12CC[C@H]3[C@@H](C[C@@H]4O[C@@]45C[C@@H](O)CC[C@]35C)[C@@H]1CC[C@@H]2C(=O)/C=C/c1ccccn1`, the Activity was “inactive”.
With `C[C@]12CC[C@H]3[C@@H](C[C@@H]4O[C@@]45C[C@@H](O)CC[C@]35C)[C@@H]1CC[C@@H]2C(=O)/C=C/c1ccccc1F` the Activity was “inactive”.
In the case of `C[C@]12CC[C@H]3[C@@H](C[C@@H]4O[C@@]45C[C@@H](O)CC[C@]35C)[C@@H]1CC[C@@H]2C(=O)/C=C/c1cccc([N+](=O)[O-])c1`, the Activity was “inactive”.
With `CC(C)c1ccc(/C=C/C(=O)[C@H]2CC[C@H]3[C@@H]4C[C@@H]5O[C@@]56C[C@@H](O)CC[C@]6(C)[C@H]4CC[C@]23C)cc1` the Activity was “inactive”.
In the case of `C[C@]12CC[C@H]3[C@@H](CC=C4C[C@@H](O)CC[C@@]43C)[C@@H]1CC[C@@H]2C(=O)/C=C/c1ccccc1`, the Activity was “inactive”.
In the case of `C[C@]12CC[C@H]3[C@@H](CC=C4C[C@@H](O)CC[C@@]43C)[C@@H]1CC[C@@H]2C(=O)/C=C/c1ccc(Cl)cc1Cl`, the Activity was “inactive”.
In the case of `COc1ccc(/C=C/C(=O)[C@H]2CC[C@H]3[C@@H]4C[C@@H]5O[C@@]56C[C@@H](O)CC[C@]6(C)[C@H]4CC[C@]23C)cc1`, the Activity was “inactive”.

Same assay, conditions: Rattus norvegicus, read-out: Activity
`COc1cccc(/C=C/C(=O)[C@H]2CC[C@H]3[C@@H]4CC=C5C[C@@H](O)CC[C@]5(C)[C@H]4CC[C@]23C)c1` showed a viability at 1 µM of 50.3%.
Compound `C[C@]12CC[C@H]3[C@@H](CC=C4C[C@@H](O)CC[C@@]43C)[C@@H]1CC[C@@H]2C(=O)/C=C/c1ccccc1F` has a viability at 1 µM of 53.1%.
`C[C@]12CC[C@H]3[C@@H](C[C@@H]4O[C@@]45C[C@@H](O)CC[C@]35C)[C@@H]1CC[C@@H]2C(=O)/C=C/c1ccccc1` was tested, and the viability at 1 µM was 64.8%.

These compounds were tested on PC-12 (assay: Cytotoxicity against […] cells at 1 uM after 24 hrs by MTT assay). Conditions: rat, pc-12, 24 h.
Format: cell-based
For `COc1cccc(/C=C/C(=O)[C@H]2CC[C@H]3[C@@H]4CC=C5C[C@@H](O)CC[C@]5(C)[C@H]4CC[C@]23C)c1`, the Activity was “Toxic”.
`C[C@]12CC[C@H]3[C@@H](CC=C4C[C@@H](O)CC[C@@]43C)[C@@H]1CC[C@@H]2C(=O)/C=C/c1ccccc1F` was tested, and the Activity was “Toxic”.
